# In patent publication US6537948B1, “Uracil compounds and use thereof” (Sumitomo Chemical Company, Limited, priority 2000, dated 2003):
# Assays:
# [1] = tested on: pale smartweed (Polygonum lapathifolium); experiment: Test Example 4: soil surface treatment of field; assay type: in vivo; settings: soil surface spray, dosage 250 g/ha, 25 days after application
# Text: (§1) A plastic pot having longer side of 32 cm, shorter side of 22 cm and depth of 8 cm was filled with soil and then seeded with hemp sesbania (Sesbania exaltata), black nightshade (Solanum nigrum), velvetleaf (Abutilon theophrasti), pale smartweed (Polygonum lapathifolium), common lambsquarters (Chenopodium album) and giant foxtail (Setaria faberi). Then, the present compound 1-12 was formulated into an emulsifiable concentrate according to Formulation Example 2 and then diluted to the prescribed amount with water, and the dilution was uniformly sprayed over the surface of the soil with a sprayer at a rate of 1000 liters per hectare. After the application, the test plants were grown in the greenhouse for 25 days, and the herbicidal activity was examined.
# [2] = tested on: hemp sesbania (Sesbania exaltata); experiment: Test Example 4: soil surface treatment of field; assay type: in vivo; settings: soil surface spray, dosage 250 g/ha, 25 days after application
# Text: as §1
# [3] = tested on: giant foxtail (Setaria faberi); experiment: Test Example 4: soil surface treatment of field; assay type: in vivo; settings: soil surface spray, dosage 250 g/ha, 25 days after application
# Text: as §1
# [4] = tested on: black nightshade (Solanum nigrum); experiment: Test Example 4: soil surface treatment of field; assay type: in vivo; settings: soil surface spray, dosage 250 g/ha, 25 days after application
# Text: as §1
# [5] = tested on: common lambsquarters (Chenopodium album); experiment: Test Example 4: soil surface treatment of field; assay type: in vivo; settings: soil surface spray, dosage 250 g/ha, 25 days after application
# Text: as §1
# [6] = tested on: velvetleaf (Abutilon theophrasti); experiment: Test Example 4: soil surface treatment of field; assay type: in vivo; settings: soil surface spray, dosage 250 g/ha, 25 days after application
# Text: as §1
# [7] = tested on: giant foxtail (Setaria faberi); experiment: Test Example 3: foliar treatment of field; assay type: in vivo; settings: foliar spray, dosage 16 g/ha, 25 days after application
# Experimental: (§2) A plastic pot having longer side of 27 cm, shorter side of 20 cm and depth of 7.5 cm was filled with soil and then seeded with ivyleaf morningglory (Ipomoea hederacea) and common cocklebur (Xanthium pensylvanicum). These test plants were grown in a greenhouse for 10 days. Then, therein, transplanted were common lambsquarters (Chenopodium album), redroot pigweed and giant foxtail (Setaria faberi) which had been seeded and grown for 14 days in a green house in advance. The test plants were further grown in the greenhouse for 8 days. After then, present compound 1-12 was formulated into an emulsifiable concentrate according to Formulation Example 2 and then diluted to the prescribed amount with water containing a spreading agent and the dilution was uniformly sprayed over the foliage of the test plants with a sprayer at a rate of 1000 liters per hectare. After the application, the test plants were grown in the greenhouse for 25 days, and the herbicidal activity was examined.
# [8] = tested on: common lambsquarters (Chenopodium album); experiment: Test Example 3: foliar treatment of field; assay type: in vivo; settings: foliar spray, dosage 16 g/ha, 25 days after application
# Experimental: as §2
# [9] = tested on: common cocklebur (Xanthium pensylvanicum); experiment: Test Example 3: foliar treatment of field; assay type: in vivo; settings: foliar spray, dosage 16 g/ha, 25 days after application
# Experimental: as §2
# [10] = tested on: ivyleaf morningglory (Ipomoea hederacea); experiment: Test Example 3: foliar treatment of field; assay type: in vivo; settings: foliar spray, dosage 16 g/ha, 25 days after application
# Experimental: as §2
# redroot pigweed = experiment: Test Example 3: foliar treatment of field; assay type: in vivo, Amaranthus retroflexus; settings: foliar spray, dosage 16 g/ha, 25 days after application
# Experimental: as §2
# [11] = tested on: velvetleaf (Abutilon theophrasti); experiment: Test Example 1: foliar treatment of field; assay type: in vivo; settings: foliar spray, dosage 125 g/ha, 16 days after application
# Experimental: (§3) A cylindrical plastic pot having a diameter of 10 cm and a depth of 10 cm was filled with soil and then seeded with ivyleaf morningglory (Ipomoea hederacea) and velvetleaf (Abutilon theophrasti). These test plants were grown in a greenhouse for 10 days. Then, each of compounds 1-2, 1-42, 1-45, 1-48, 2-2, 2-7, 2-42, 2-45, 3-2, 3-12, 4-7, 4-85, 5-12-R, 5-12-S, 5-17, 6-2, 7-2, 7-6, 7-8, 7-12, 7-48, 7-50, 7-84, 7-118, 7-119, 7-125, 9-7, 9-27 and 9-45 was formulated into an emulsifiable concentrate according to Formulation Example 2 and then diluted to the prescribed amount with water containing a spreading agent and the dilution was uniformly sprayed over the foliage of the test plants with a sprayer at a rate of 1000 liters per hectare. After the application, the test plants were grown in the greenhouse for 16 days, and the herbicidal activity was determined.
# [12] = tested on: ivyleaf morningglory (Ipomoea hederacea); experiment: Test Example 1: foliar treatment of field; assay type: in vivo; settings: foliar spray, dosage 125 g/ha, 16 days after application
# Experimental: as §3
# [13] = tested on: large crabgrass (Digitaria sanguinalis); experiment: Test Example 7: foliar spray, herbicidal activity index; assay type: in vivo; set-up: key: “0” means that there was no or little difference in the degree of germination or growth between the treated and the untreated tested plants at the time of examination; “10” means that the test plants died complete or their germination or growth was completely inhibited; settings: 4 days after application, index 0-10
# Experimental: (§4) A plastic pot having longer side of 27 cm, shorter side of 19 cm and depth of 7 cm was filled with soil and then seeded with large crabgrass (Digitaria sanguinalis) and giant foxtail (Setaria faberi). Nine days after, barnyardgrass (Echinochloa crus-galli) was seeded therein and grown for 15 days in a greenhouse. Further, a plastic pot having longer side of 16.5 cm, shorter side of 12 cm and depth of 7 cm was filled with soil and then seeded with wild oat (Avena fatua), and grown for 18 days in a greenhouse. Then, each of the present compound 1-45 and B was formulated into an emulsifiable concentrate according to Formulation Example 2 and then diluted to the prescribed amount with water containing a spreading agent and the dilution was uniformly sprayed over the foliage of the test plants with a sprayer at a rate of 1000 liters per hectare. After the application, the test plants were grown in the greenhouse for 4 days, and the herbicidal activity was examined. (In the Table 13, the test plants are shown as follows.
# (§5) Barnyardgrass: B, Large crabgrass: LC, Giant foxtail: GF, Wild oat: W
# [14] = tested on: barnyardgrass (Echinochloa crus-galli); experiment: as above; assay type: in vivo; set-up: key: “0” means that there was no or little difference in the degree of germination or growth between the treated and the untreated tested plants at the time of examination; “10” means that the test plants died complete or their germination or growth was completely inhibited; settings: 4 days after application, index 0-10
# Experimental: as §4, §5
# [15] = tested on: giant foxtail (Setaria faberi); experiment: as above; assay type: in vivo; set-up: key: “0” means that there was no or little difference in the degree of germination or growth between the treated and the untreated tested plants at the time of examination; “10” means that the test plants died complete or their germination or growth was completely inhibited; settings: 4 days after application, index 0-10
# Experimental: as §4, §5
# wild oat (Avena fatua) [16] = experiment: as above; assay type: in vivo; settings: 4 days after application, index 0-10
# Experimental: as §4, §5
# [17] = tested on: barnyardgrass (Echinochloa crus-galli); experiment: Test Example 6: foliar spray, herbicidal activity index; assay type: in vivo; set-up: key: “0” means that there was no or little difference in the degree of germination or growth between the treated and the untreated tested plants at the time of examination; “10” means that the test plants died complete or their germination or growth was completely inhibited; settings: 4 days after application, index 0-10
# Experimental: as §4, with “1-67” for “1-45”, “A” for “B”, “1000liters” for “1000 liters”, “12,” for “13,”
# as §5
# [18] = tested on: giant foxtail (Setaria faberi); experiment: as above; assay type: in vivo; set-up: key: “0” means that there was no or little difference in the degree of germination or growth between the treated and the untreated tested plants at the time of examination; “10” means that the test plants died complete or their germination or growth was completely inhibited; settings: 4 days after application, index 0-10
# Experimental: as §4, with “1-67” for “1-45”, “A” for “B”, “1000liters” for “1000 liters”, “12,” for “13,”
# as §5
# [19] = tested on: large crabgrass (Digitaria sanguinalis); experiment: as above; assay type: in vivo; settings: 4 days after application, index 0-10
# Experimental: as §4, with “1-67” for “1-45”, “A” for “B”, “1000liters” for “1000 liters”, “12,” for “13,”
# as §5
# wild oat (Avena fatua) [20] = experiment: as above; assay type: in vivo; settings: 4 days after application, index 0-10
# Experimental: as §4, with “1-67” for “1-45”, “A” for “B”, “1000liters” for “1000 liters”, “12,” for “13,”
# as §5
# [21] = tested on: johnsongrass (Sorghum halepense); experiment: Test Example 8: foliar spray, herbicidal activity index; assay type: in vivo; set-up: key: “0” means that there was no or little difference in the degree of germination or growth between the treated and the untreated tested plants at the time of examination; “10” means that the test plants died complete or their germination or growth was completely inhibited; settings: foliar spray 373 liters per hectare, examined after 4 days, index 0-10
# Experimental: (§6) A plastic pot having longer side of 16.5 cm, shorter side of 12 cm and depth of 7 cm was filled with soil and then seeded with large crabgrass (Digitaria sanguinalis), giant foxtail (Setaria faberi) and johnsongrass (Sorghum halepense). These test plants were grown in a greenhouse for 25 days. Then, each of the present compound 2-52 and C was formulated into an emulsifiable concentrate according to Formulation Example 2 and then diluted to the prescribed amount with water containing a spreading agent and the dilution was uniformly sprayed over the foliage of the test plants with a sprayer at a rate of 373 liters per hectare. After the application, the test plants were grown in the greenhouse for 4 days, and the herbicidal activity was examined. (In the Table 14, the test plants are shown as follows.
# (§7) Large crabgrass: LC, Giant foxtail: GF, Johnsongrass: J
# [22] = tested on: large crabgrass (Digitaria sanguinalis); experiment: as above; assay type: in vivo; set-up: key: “0” means that there was no or little difference in the degree of germination or growth between the treated and the untreated tested plants at the time of examination; “10” means that the test plants died complete or their germination or growth was completely inhibited; settings: foliar spray 373 liters per hectare, examined after 4 days, index 0-10
# Experimental: as §6, §7
# [23] = tested on: giant foxtail (Setaria faberi); experiment: as above; assay type: in vivo; set-up: key: “0” means that there was no or little difference in the degree of germination or growth between the treated and the untreated tested plants at the time of examination; “10” means that the test plants died complete or their germination or growth was completely inhibited; settings: foliar spray 373 liters per hectare, examined after 4 days, index 0-10
# Experimental: as §6, §7
compound,measurement,setting,value
"COC(=O)C(C)Oc1cnc(Oc2cc(-n3c(=O)cc(C(F)(F)F)n(C)c3=O)c(F)cc2Cl)nc1 (centres unmarked) [Compound 1-12, methyl 2-([2-{2-chloro-4-fluoro-5-[3-methyl-2,6-dioxo-4-(trifluoromethyl)-1,2,3,6-tetrahydropyrimidin-1-yl]phenoxy}pyrimidin-5-yl]oxy)propionate]",growth of pale smartweed (herbicidal activity),[1],completely controlled
same,growth of hemp sesbania (herbicidal activity),[2],completely controlled
same,growth of giant foxtail (herbicidal activity),[3],completely controlled
same,growth of black nightshade (herbicidal activity),[4],completely controlled
same,growth of common lambsquarters (herbicidal activity),[5],completely controlled
same,growth of velvetleaf (herbicidal activity),[6],completely controlled
same,growth of giant foxtail (herbicidal activity),[7],completely controlled
same,growth of common lambsquarters (herbicidal activity),[8],completely controlled
same,growth of common cocklebur (herbicidal activity),[9],completely controlled
same,growth of ivyleaf morningglory (herbicidal activity),[10],completely controlled
same,growth of redroot pigweed (herbicidal activity),redroot pigweed,completely controlled
"COC(=O)COc1cc(OC)nc(Oc2cc(-n3c(=O)cc(C(F)(F)F)n(C)c3=O)c(F)cc2Cl)n1 [Compound 1-45, 2-{2-chloro-4-fluoro-5-[3-methyl-2,6-dioxo-4-(trifluoromethyl)-1,2,3,6-tetrahydropyrimidin-1-yl]phenoxy}-6-methoxy-4-(methoxycarbonyl)methoxypyrimidine]",growth of velvetleaf (herbicidal activity),[11],completely controlled
same,growth of ivyleaf morningglory (herbicidal activity),[12],completely controlled
same,Herbicidal activity LC,[13]; dosage 32 g/ha,10
same,Herbicidal activity LC,[13]; dosage 125 g/ha,10
same,Herbicidal activity B,[14]; dosage 32 g/ha,10
same,Herbicidal activity B,[14]; dosage 125 g/ha,10
same,Herbicidal activity GF,[15]; dosage 32 g/ha,10
same,Herbicidal activity GF,[15]; dosage 125 g/ha,10
same,Herbicidal activity W,wild oat (Avena fatua) [16]; dosage 32 g/ha,9
same,Herbicidal activity W,wild oat (Avena fatua) [16]; dosage 125 g/ha,9
"COC(=O)COc1cc(OC)nc(Nc2cc(-n3c(=O)cc(C(F)(F)F)n(C)c3=O)c(F)cc2Cl)n1 [Compound 1-67, 2-{2-chloro-4-fluoro-5-[3-methyl-2,6-dioxo-4-(trifluoromethyl)-1,2,3,6-tetrahydropyrimidin-1-yl]phenylamino}-6-methoxy-4-(methoxycarbonyl)methoxypyrimidine]",Herbicidal activity B,[17]; dosage 32 g/ha,10
same,Herbicidal activity B,[17]; dosage 125 g/ha,10
same,Herbicidal activity GF,[18]; dosage 32 g/ha,10
same,Herbicidal activity GF,[18]; dosage 125 g/ha,10
same,Herbicidal activity LC,[19]; dosage 32 g/ha,9
same,Herbicidal activity LC,[19]; dosage 125 g/ha,9
same,Herbicidal activity W,wild oat (Avena fatua) [20]; dosage 32 g/ha,8
same,Herbicidal activity W,wild oat (Avena fatua) [20]; dosage 125 g/ha,9
"COC(=O)C(C)Nc1cccnc1Oc1cc(-n2c(=O)cc(C(F)(F)F)n(C)c2=O)c(F)cc1Cl (centres unmarked) [Compound 2-52, 2-{2-chloro-4-fluoro-5-[3-methyl-2,6-dioxo-4-(trifluoromethyl)-1,2,3,6-tetrahydropyrimidin-1-yl]phenoxy}-3-{1-(methoxycarbonyl)ethylamino}pyridine]",Herbicidal activity J,[21]; dosage 32 g/ha,10
same,Herbicidal activity J,[21]; dosage 125 g/ha,10
same,Herbicidal activity LC,[22]; dosage 32 g/ha,9
same,Herbicidal activity LC,[22]; dosage 125 g/ha,10
same,Herbicidal activity GF,[23]; dosage 32 g/ha,9
same,Herbicidal activity GF,[23]; dosage 125 g/ha,10
